Results taken from article PMC6769468, “Endogenous Neuropeptide Nocistatin Is a Direct Agonist of Acid-Sensing Ion Channels (ASIC1, ASIC2 and ASIC3)” (Biomolecules, 2019).
Ends that are not written are not given here.

Biological target: T1, rat ASIC1a (Rattus norvegicus, UniProt P55926)
T1 construct: expressed in transfected cells; host or cells: Xenopus laevis oocytes (injected)
T1 sequence (P55926 1-526): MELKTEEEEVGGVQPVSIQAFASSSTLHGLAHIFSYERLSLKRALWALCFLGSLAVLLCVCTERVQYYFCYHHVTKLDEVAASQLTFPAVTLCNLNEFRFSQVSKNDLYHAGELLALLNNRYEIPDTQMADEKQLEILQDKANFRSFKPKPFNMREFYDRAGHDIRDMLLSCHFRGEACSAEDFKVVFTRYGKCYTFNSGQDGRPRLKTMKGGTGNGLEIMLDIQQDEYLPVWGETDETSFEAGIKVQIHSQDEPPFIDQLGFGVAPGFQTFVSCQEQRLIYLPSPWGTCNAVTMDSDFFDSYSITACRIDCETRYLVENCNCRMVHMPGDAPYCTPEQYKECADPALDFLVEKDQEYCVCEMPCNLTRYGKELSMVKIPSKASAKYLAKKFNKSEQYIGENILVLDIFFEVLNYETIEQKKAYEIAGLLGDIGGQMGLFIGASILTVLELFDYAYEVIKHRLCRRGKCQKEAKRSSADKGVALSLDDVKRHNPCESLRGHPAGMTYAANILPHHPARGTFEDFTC
Experiment: ASIC1a steady-state desensitization (SSD) by rNS preconditioning
Format: cell-based
Details: preconditioning with 0.04 to 0.1 mM rNS, then 1 mM rNS stimulus; n = 4
Experimental: Oocytes expressed rASIC1a, rASIC1b, rASIC2a, and rASIC3 homomeric channels were prepared as described. Injected oocytes were kept for two–three days at 19 °C and then for up to seven days at 15 °C in ND-96 medium supplemented with gentamycin (50 μg·mL^−1) and containing (in mM): 96 NaCl, 2 KCl, 1.8 CaCl2, 1 MgCl2, and 10 HEPES titrated to pH 7.4 with NaOH. Electrophysiological recordings were performed using the GeneClamp500 amplifier (Axon Instruments, Inverurie, UK) at a holding potential of -50 mV. The data were filtered at 20 Hz and digitized at 100 Hz using the L780 AD converter (L-Card, Moscow, Russia). Microelectrodes were filled with 3 M KCl. […]
Figure 2 Effects of nocistatin on rat ASIC1a channels. […] Calculated parameters of EC50 for non-discriminated sites, or EC501 for “cooperative” sites and EC502 for single site, are shown as a result of experimental data mathematical processing. The peak current amplitude is normalized to the maximum amplitude (Imax) calculated for each oocyte by individual fitting. […] Two independent dose-response curves were measured for the 1st (blue line) and the 2nd (green line) peak components of the current. Calculated parameters of IC50 are shown as a result of experimental data mathematical processing by F3(x) logistic equation (see Materials and Methods for detailed description). […]

MPRVRSVVQARDAEPEADAEPVADEADEVEQKQLQ [rNS]
Steady-state desensitization (SSD): does not -induce SSD
